The source of these data is patent publication US20230108906A1, “SUBSTITUTED BICYCLIC AND TRICYCLIC UREAS AND AMIDES, ANALOGUES THEREOF, AND METHODS USING SAME” (Arbutus Biopharma Corporation, priority 2019, published 2023).

A value given as a limit tells only on which side of the number the result lay.

One test concerns HBV rcDNA in HepDE19 cells. Nature of the test: HepDE19 assay with bDNA quantitation of HBV rcDNA. Conditions: Hepatitis B virus, HepDE19, 168 h, inhibition of rcDNA formation in HepDE19 cells (HepG2 derived), Tet-free medium, 7 day incubation, Quantigene 2.0 bDNA readout, top concentration 25 μM; read-out: DE-19bDNA EC50. Type of test: cell-based, hepatitis B virus (HBV). The gist of the method:
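Cytotoxicity run on replicate plates (5,000 cells/well, 4 days, ATP luminescence, CC50), while antiviral plates (50,000 cells/well) received compound for 7 days after tetracycline withdrawal to induce HBV replication. Top dose 25 μM, 8 points, 0.5% DMSO; rcDNA by branched-DNA assay, % inhibition fitted (4-parameter) for EC50 and EC90.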
On to `CN(C(=O)Nc1ccc(F)c(Cl)c1)C1COCc2[nH]c(=O)c3ccc(F)cc3c21` (stereo not shown) [Compound 73, 3-(3-Chloro-4-fluorophenyl)-1-(9-fluoro-6-oxo-1,4,5,6-tetrahydro-2H-pyrano[3,4-c]isoquinolin-1-yl)-1-methylurea], for which the EC50 (as a rule, the concentration giving half of the maximal effect) was determined as 0.02 µM. Still for that read-out and setting: under `CC(=O)N1Cc2[nH]c(=O)c3cc(F)ccc3c2C(N(C)C(=O)Nc2ccc(F)c(Cl)c2)C1` (single isomer, unassigned) [Compound 157, 1-(3-Acetyl-8-fluoro-6-oxo-1,2,3,4,5,6-hexahydrobenzo[c][1,7]naphthyridin-1-yl)-3-(3-chloro-4-fluorophenyl)-1-methylurea] stands 1.2 µM; under `CN(C(=O)Nc1ccc(F)c(Cl)c1)C1CC(C)(C)Cc2[nH]c(=O)c3ccccc3c21` (stereo not shown) [Compound 27, 3-(3-Chloro-4-fluorophenyl)-1-(3,3-dimethyl-6-oxo-1,2,3,4,5,6-hexahydrophenanthridin-1-yl)-1-methylurea], 12 µM. Still for that read-out and setting: the result for `CN(C(=O)Nc1ccc(F)c(Cl)c1)C1CS(=O)(=O)Cc2[nH]c(=O)c3cc(F)c(F)cc3c21` (single isomer, unassigned) [Compound 203, 3-(3-Chloro-4-fluorophenyl)-1-(8,9-difluoro-3,3-dioxido-6-oxo-1,4,5,6-tetrahydro-2H-thiopyrano[3,4-c]isoquinolin-1-yl)-1-methylurea] reads 1.4 µM; that for `CN(C(=O)Nc1ccc(F)c(C#N)c1)C1COCc2[nH]c(=O)c3cc(F)c(F)cc3c21` (racemic) [Compound 106, 3-(3-Cyano-4-fluorophenyl)-1-(8,9-difluoro-6-oxo-1,4,5,6-tetrahydro-2H-pyrano[3,4-c]isoquinolin-1-yl)-1-methylurea], 0.02 µM; that for `O=C(Nc1ccc(F)c(Cl)c1)N(CCCO)C1CCc2[nH]c(=O)c3ccccc3c21` (stereo not shown) [Compound 14, 3-(3-Chloro-4-fluorophenyl)-1-(3-hydroxypropyl)-1-(5-oxo-2,3,4,5-tetrahydro-1H-cyclopenta[c]isoquinolin-1-yl)urea], 0.1 µM. With `CN(C(=O)Nc1ccc(F)c(Cl)c1)[C@H]1COCc2[nH]c(=O)c3cc(F)ccc3c21` (single isomer, unassigned) [Compound 40], the EC50 was found to be 1 µM. Regarding `CN(C(=O)Nc1ccc(F)c(Cl)c1)C1COCc2[nH]c(=O)c3cc(C#N)ccc3c21` (stereo not shown) [Compound 89, 3-(3-Chloro-4-fluorophenyl)-1-(8-cyano-6-oxo-1,4,5,6-tetrahydro-2H-pyrano[3,4-c]isoquinolin-1-yl)-1-methylurea], the EC50 was 1.1 µM. For `O=C(Nc1ccc(F)c(Cl)c1)N[C@@H]1COCc2[nH]c(=O)c3cc(F)c(F)cc3c21` (single isomer, unassigned) [Compound 68], the EC50 came out at 0.03 µM.

The test is the same for the next values; noted with them: inhibition of rcDNA formation in HepDE19 cells (HepG2 derived), Tet-free medium, 7 day incubation, Quantigene 2.0 bDNA readout, top concentration 25 μM; read-out: DE-19bDNA EC50.
`CN(C(=O)Nc1ccc(F)c(Cl)c1)C1COCc2[nH]c(=O)c3ccccc3c21` (single isomer, unassigned) [Compound 37, 3-(3-Chloro-4-fluorophenyl)-1-methyl-1-(6-oxo-1,4,5,6-tetrahydro-2H-pyrano[3,4-c]isoquinolin-1-yl)urea]: the EC50 amounted to 0.03 µM.

As for `CN(C(=O)Nc1cc(Cl)c(F)c(Cl)c1)C1COCc2[nH]c(=O)c3cc(F)ccc3c21` (single isomer, unassigned) [Compound 97, 3-(3,5-Dichloro-4-fluorophenyl)-1-(8-fluoro-6-oxo-1,4,5,6-tetrahydro-2H-pyrano[3,4-c]isoquinolin-1-yl)-1-methylurea], the EC50 came out at 3.3 µM. For the compound `CN(C(=O)Nc1ccc(F)c(C#N)c1)C1CN(CCO)Cc2[nH]c(=O)c3cc(F)c(F)cc3c21` (single isomer, unassigned) [Compound 182, 3-(3-Cyano-4-fluorophenyl)-1-(8,9-difluoro-3-(2-hydroxyethyl)-6-oxo-1,2,3,4,5,6-hexahydrobenzo[c][1,7]naphthyridin-1-yl)-1-methylurea], the EC50 came to 4.9 µM.

For the compound `CN(C(=O)Nc1ccc(F)c(C#N)c1)C1CS(=O)(=O)Cc2[nH]c(=O)c3cc(F)c(F)cc3c21` (single isomer, unassigned) [Compound 206, 3-(3-Cyano-4-fluorophenyl)-1-(8,9-difluoro-3,3-dioxido-6-oxo-1,4,5,6-tetrahydro-2H-thiopyrano[3,4-c]isoquinolin-1-yl)-1-methylurea], the EC50 amounted to 4.8 µM. Same read-out and setting: under `NS(=O)(=O)CCN(C(=O)Nc1ccc(F)c(Cl)c1)C1COCc2[nH]c(=O)c3cc(F)c(F)cc3c21` (single isomer, unassigned) [Compound 136, 2-(3-(3-Chloro-4-fluorophenyl)-1-(8,9-difluoro-6-oxo-1,4,5,6-tetrahydro-2H-pyrano[3,4-c]isoquinolin-1-yl)ureido)ethane-1-sulfonamide] stands 2.9 µM; under `CN(C(=O)Nc1ccc(F)c(Cl)c1)C1CCCc2[nH]c(=O)c3c(c21)CCOC3` (single isomer, unassigned) [Compound 61, 3-(3-Chloro-4-fluorophenyl)-1-methyl-1-(5-oxo-1,4,5,6,7,8,9,10-octahydro-2H-pyrano[3,4-c]quinolin-10-yl)urea], 5.1 µM. Turning to `CN(C(=O)Nc1ccc(F)c(C#N)c1)C1CN(CCO)Cc2[nH]c(=O)c3cc(F)c(F)cc3c21` (single isomer, unassigned) [Compound 181, 3-(3-Cyano-4-fluorophenyl)-1-(8,9-difluoro-3-(2-hydroxyethyl)-6-oxo-1,2,3,4,5,6-hexahydrobenzo[c][1,7]naphthyridin-1-yl)-1-methylurea], the EC50 is no less than 25 µM. Still for that read-out and setting: under `CN(C(=O)Nc1ccc(F)c(Cl)c1)C1COCc2nc(NCCN)c3cc(F)c(F)cc3c21` (single isomer, unassigned) [Compound 249] stands 8.3 µM. As to `CCN(C(=O)Nc1ccc(F)c(F)c1)C1CCCc2[nH]c(=O)c3c(c21)CCCC3` (single isomer, unassigned) [Compound 50, 3-(3,4-Difluorophenyl)-1-ethyl-1-(6-oxo-1,2,3,4,5,6,7,8,9,10-decahydrophenanthridin-1-yl)urea], the EC50 turned out to be 6.8 µM. On to `CN(C(=O)Nc1ccc(F)c(C#N)c1)C1CN(CCO)Cc2[nH]c(=O)c3cc(F)ccc3c21` (single isomer, unassigned) [Compound 172, 3-(3-Cyano-4-fluorophenyl)-1-(8-fluoro-3-(2-hydroxyethyl)-6-oxo-1,2,3,4,5,6-hexahydrobenzo[c][1,7]naphthyridin-1-yl)-1-methylurea], for which the EC50 was 10 µM. `CN(C(=O)Nc1ccc(F)c(Cl)c1)C1CCCc2[nH]c(=O)c3c(c21)CCCC3` (single isomer, unassigned) [Compound 47, 3-(3-Chloro-4-fluorophenyl)-1-methyl-1-(6-oxo-1,2,3,4,5,6,7,8,9,10-decahydrophenanthridin-1-yl)urea]: the EC50 worked out at 0.06 µM.

Take `CN(C(=O)Nc1ccc(F)c(Cl)c1)C1CNCc2[nH]c(=O)c3cc(F)ccc3c21` (single isomer, unassigned) [Compound 154, 3-(3-Chloro-4-fluorophenyl)-1-(8-fluoro-6-oxo-1,2,3,4,5,6-hexahydrobenzo[c][1,7]naphthyridin-1-yl)-1-methylurea]: the EC50 worked out at 0.03 µM.

The test is the same for the next values; noted with them: read-out: DE-19bDNA EC50; inhibition of rcDNA formation in HepDE19 cells (HepG2 derived), Tet-free medium, 7 day incubation, Quantigene 2.0 bDNA readout, top concentration 25 μM.
For the compound `CN(C(=O)Nc1cccc(Cl)c1)C1COCc2[nH]c(=O)c3cc(F)c(F)cc3c21` (single isomer, unassigned) [Compound 119, 3-(3-Chlorophenyl)-1-(8,9-difluoro-6-oxo-1,4,5,6-tetrahydro-2H-pyrano[3,4-c]isoquinolin-1-yl)-1-methylurea], the EC50 turned out to be 1.8 µM.
